Reference: paper PMC4861463, “A Molecular Switch Abrogates Glycoprotein 100 (gp100) T-cell Receptor (TCR) Targeting of a Human Melanoma Antigen” (The Journal of Biological Chemistry, 2016)
Entries after “also recorded” stand apart in the source; their conditions may differ.

Tests used:
[1] = system: gp100 TCR-transduced CD8+ T-cells; assay: MIP-1β production by ELISA after stimulation with peptide-pulsed T2 target cells; type: cell-based, Human; details: peptide titration; 6 × 10^4 T2 cells pulsed 1 h + 3 × 10^4 T-cells, overnight; ELISA of supernatant; duplicate; Fig. 6A
[2] = system: gp100 TCR-transduced CD8+ T-cells; assay: 4-h 51Cr release cytotoxicity assay against peptide-pulsed T2 targets; type: cell-based, Human; details: 37 °C, effector/target ratio 5, 51Cr-labelled T2 cells, peptide titration, duplicate, Fig. 6B
[3] = system: gp100-specific TCR-transfected human T-cells; details: cited from earlier work
Excerpt: Thus, in order to study the individual contribution of the peptide residues invo ... || We also provide insight into the role of each residue in gp100^280–288 during TCR recognition by performing an alanine scan mutagenesis with two different gp100^280–288-specific αβTCRs. […] These observations are consisten ...

[4] = target: PMEL17 TCR (TRAV21 TRBV7-3); assay: SPR affinity analysis of PMEL17 TCR binding to HLA-A*0201-peptide complexes; parameters: species or system Human; details: SPR equilibrium analysis, triplicate; for PMEL17 TCR (TRAV21 TRBV7-3), affinity KD: biotinylated HLA-A*0201-peptide complex (500–600 RU) on streptavidin CM5 chip, 9–10 serial dilutions of soluble TCR
[5] = target: gp100 TCR (TRAV17 TRBV19); assay: SPR affinity analysis of gp100 TCR binding to HLA-A*0201-peptide complexes; parameters: species or system Human; details: SPR equilibrium analysis, triplicate; for gp100 TCR (TRAV17 TRBV19), affinity KD: biotinylated HLA-A*0201-peptide complex (500–600 RU) on streptavidin CM5 chip, 9–10 serial dilutions of soluble TCR

Sequence | MIP-1β production [1] | specific lysis of peptide-pulsed target cells [2] | agonist activity for a different gp100-specific TCR [3] | PMEL17 TCR (TRAV21 TRBV7-3), affinity KD [4] | PMEL17 TCR (TRAV21 TRBV7-3), affinity KD ([4]; listed as A2-YLE-3A) | gp100 TCR (TRAV17 TRBV19), affinity KD [5] | gp100 TCR (TRAV17 TRBV19), affinity KD ([5]; listed as A2-YLE-3A) | Kd ([4]; read-out: PMEL17 TCR (TRAV21 TRBV7-3), affinity KD, biotinylated HLA-A*0201-peptide complex on streptavidin CM5 chip) [µM] | Kd ([5]; read-out: gp100 TCR (TRAV17 TRBV19), affinity KD, biotinylated HLA-A*0201-peptide complex on streptavidin CM5 chip) [µM]
YLAPGPVTA [YLE-3A] | No MIP-1β production | no cytotoxic T lymphocyte-mediated lysis | null agonist | complete absence of measurable binding; also recorded: No binding | completely abrogated binding | No binding | completely abrogated binding |  | 
YLEPAPVTA [YLE-5A] | No MIP-1β production | no cytotoxic T lymphocyte-mediated lysis |  |  |  |  |  | > 1000 | > 1000
